# From US6403090B1, “Peptides which mimic candida carbohydrate epitopes and their use in a vaccine” (The Research and Development Institute Inc., priority 1994, dated 2002)
# Where a SMILES comes first, the peptide text is derived from it. [ ]: non-standard residue; d: D form. Nle = CCCC[C@H](N)C(=O)O
# B1: PS76-OVA: PS76p conjugated to ovalbumin via GMBS (conjugate)
# peptide: YRQFVTGFWGPPC
# chain: GSIGAASMEFCFDVFKELKVHHANENIFYCPIAIMSALAMVYLGAKDSTRTQINKVVRFDKLPGFGDSIEAQCGTSVNVHSSLRDILNQITKPNDVYSFSLASRLYAEERYPILPEYLQCVKELYRGGLEPINFQTAADQARELINSWVESQTNGIIRNVLQPSSVDSQTAMVLVNAIVFKGLWEKAFKDEDTQAMPFRVTEQESKPVQMMYQIGLFRVASMASEKMKILELPFASGTMSMLVLLPDEVSGLEQLESIINFEKLTEWTSSNVMEERKIKVYLPRMKMEEKYNLTSVLMAMGITDVFSSSANLSGISSAESLKISQAVHAAHAEINEAGREVVGSAEAGVDAASVSEEFRADHPFLFCIKHIATNAVLFFGRCVSP
# Assays:
# g3p in COS-1 cells = assay: g3p expression in transfected COS-1 cells by IFA; type: cell-based; details: COS-1 cells treated with protease inhibitor
# Experimental: To achieve greater levels of expression, the plasmids were transfected into COS-1 cells, which are capable of replicating the plasmids and generating exceptional amounts of the encoded proteins. […] Several different transfection methods and variations were tested to increase the proportion of cells that would express detectable g3p. […] Therefore, g3p is likely being broken down rapidly by the mammalian cells.
# This possibility was further tested by treating the COS-1 cells with a protease inhibitor (ALLN) that can inhibit proteases in the endoplasmic reticulum of living cells. […] The antigen was detected in the Golgi apparatus as well as in the endoplasmic reticulum. Less of the truncated version of g3p (without a membrane anchor) was detectable; whether any of it is secreted from the expressing cells under these conditions remains to be determined.
# [1] = tested on: binding of C. albicans hydrophilic yeast cells to splenic marginal zone macrophages; assay: Ex vivo adherence assay on mouse splenic tissue; details: purified epitope of mAb 10G
# Excerpt: Tissue adherence characteristics of C. albicans and adhesin isolation. By use of an ex vivo adherence assay, the adherence characteristics of hydrophilic and hydrophobic yeast cells to mouse splenic and lymph node tissue was examined (Cutler, J. E., et al., 1990, Characteristics of Candida albicans adherence to mouse tissues. Infec. Immun. 58:1902-1908); Han, Y., et al. 1993. Binding of C. albicans yeast cells to mouse popliteal lymph node tissue is mediated by macrophages. Infect. Immun. 61:3244-3249; and Hazen, K. C., et al. 1991. Differential adherence between hydrophobic and hydrophilic yeast cells of C. albicans. Infect. Immun. 59:907-91212).
# C. neoformans strain 602 log and stationary phase cells were removed form the various growth conditions and tested for adherence to splenic tissue in the ex vivo assay. […]
# However, 2ME extract will not inhibit yeast adherence if the extract is treated with antiserum from vaccinated animals. […] 100 μl of each was overlaid onto splenic cryosections for 15 min at 4° C., the mixtures were decanted, 100 μl of a suspension of yeast cells (1.5×10^7/0.1 ml DMEM) was added to each tissue section for 15 min at 4° C., and yeast cell binding was quantified as previously described (Riesselman, M. H. et al. 1991. Improvements and important considerations of an ex vivo assay to study interactions of C. albicans with splenic tissue., J. Immunol. Methods 1450:153-160). […]
# [2] = biological target: Monoclonal Antibody B6.1 (930610), ATCC Accession No. HB11925
# Solubility tests = type: physicochemical
# Excerpt: Synthetic peptide inhibits binding of MAb B6.1 to its' carbohydrate epitope. […] We obtained a synthetic 13-mer peptide (Bio-Synthesis, Lewisville, Tex.), YRQFVTGFWGPPC, (SEQ ID NO:7) which was designed to include the PS76 nonapeptide sequence (designated as PS76p) plus the 3 amino acid pIII tether (GPP) and an added cysteine (C) to facilitate peptide coupling to a carrier protein, such as keyhole limpet hemocyanin (KLH). Due to the high number of hydrophobic amino acids in the synthesized PS76p, solubility tests were run to determine conditions for dot blot inhibition studies. The PS76p was soluble in trifluoroacetic acid, dimethylsulfoxide, 20% v/v acetic acid, citrate and acetate buffers below pH 5.4, borate buffer above pH 8.5, but not soluble in deionized water, phosphate buffered saline (PBS), 15% v/v dimethylformamide, chloroform, or methanol.
# MAb B6.1 [3] = assay: Dot blot inhibition of MAb B6.1 by synthetic peptide at pH 8.6; type: binding, mouse; details: up to 200 μM peptide
# Excerpt: Because pH below 5 or above 8.5 is required to solubilize PS76p, the reactivity of MAb B6.1 at low and high pH was investigated. […] Although MAb B6.1 is functional at these pH conditions, the PS76p may or may not retain proper epitope conformation at this pH and may require tethering to a carrier molecule to enable inhibition studies to be done at pH 7.
# C. albicans 2ME extract = assay: Antibody response of mice immunized with peptide mimotope preparations; type: in vivo, BALB/c mice; details: for Class of the antibody response against 2ME extract: γ-chain or μ-chain specific secondary antibodies
# Experimental: Administration of peptide intraperitoneally (i.p.) BALB/c mice (4 animals) were immunized i.p. with PS76p (1 mg per dose) mixed into sterile PBS (degassed and nitrogen sparged) with and without RS-700MPL+TDM Ribi Adjuvant (Ribi Immunochem, Hamilton, Mont.). The insolubility of PS76p in PBS, as noted above, produced a particulate inoculum which was sonicated briefly (10 sec, ice cold) to minimize particulate size prior to injection. Animals were boosted with 1 mg PS76p at day 21 and serum samples were obtained on day 28. Sera from all four mice agglutinated hydrophilic C. albicans cells and agglutinated 2-ME extract-latex beads. The anti-Candida response appeared somewhat stronger in the animals receiving peptide with adjuvant.
# Reactivity of the anti-PS76p sera from the mice was also tested in dot blot assays against 2-ME extract (1 μg/dot). Immune sera were diluted 1:10 in 5% BLOTTO-phage buffer, incubated 12-16 h with preblocked dot blots, washed and incubated with peroxidase-conjugated goat anti-mouse Ig (G,M, and A). […] Additional dot blots were incubated in primary antibodies as above and reacted with either γ-chain specific or μ-chain specific secondary antibodies.
# Animals were administered booster immunizations of PS76p every two weeks and serum samples obtained 1 week after each. An ELISA assay was utilized to determine any change in titer for the anti-PS76p antiserum samples. Briefly, 2ME extract-coated wells or wells coated with an irrelevant carbohydrate were blocked in 5% BLOTTO/phage buffer and incubated with dilutions of either pre-immune sera or various anti-PS76p antiserum samples. Subsequent steps with the secondary antibody and substrate solution were as described above for ELISA. All of the anti-PS76p serum samples reacted with 2ME extract and recognized the peptide-carrier protein conjugates, but not the irrelevant carbohydrate or the carrier proteins alone. […] Other BALB/C mice (2 animals) were immunized with PS76p plus Ribi adjuvant (1 mg/dose subcutaneous inoculation (s.c.), and reached higher anti-PS76 antibody titers (e.g. 160 by ELISA) after the second boost. ELISA tests performed with class-specific secondary antibody reagents confirm that the response is primarily IgM. […]
# MAb B6.1 [4] = assay: ELISA: peptide-carrier conjugates with MAb B6.1 at physiologic pH; type: binding, mouse; details: OD 490 nm
# Experimental: (§1) Samples of the final conjugates, PS76p-MBS-KLH (i.e. PS76-KLH) and PS76p-GMBS-OVA (i.e. PS76-OVA) were tested by enzyme linked immunosorbent assay (ELISA) for reactivity with MAb B6.1 at physiologic pH. Microtiter plate wells were coated with the peptide conjugates or the carrier proteins alone, washed (Tris buffered saline with 0.1% Tween-20), and blocked in 5% BLOTTO/phage buffer. Wells were washed and incubated with MAb B6.1, an irrelevant IgM (MAb S10) or block only, washed, and a horseradish peroxidase-conjugated goat anti-mouse Ig (G and M) was added. Wells were washed and an o-phenylenediamine substrate solution was added, incubated 10 min and color development stopped with 10% sulfuric acid, and the plate read at OD=490 nm. […] The PS76-KLH conjugate was utilized in an ELISA-based inhibition assay as follows. Microtiter plate wells were coated with PS76-KLH and blocked as above. MAb B6.1 ([…] in block) was pre-incubated with or without either 50 or 500 μg of acid-hydrolyzed 2ME extract per ml of solution, and then added to the conjugate coated well.
# MAb S10 = assay: ELISA: peptide-carrier conjugates with irrelevant IgM MAb S10; type: binding; details: physiologic pH
# Experimental: as §1
molecule,measurement,setting,value
CCCC[C@@H](C=O)NC(=O)[C@H](CC(C)C)NC(=O)[C@H](CC(C)C)NC(C)=O [ALLN] (Ac-Leu-Leu-[Nle]-aldehyde),Frequency and amount of g3p detectable by IFA,g3p in COS-1 cells,significant increase
"OC[C@H]1O[C@@H](O[C@@H]2[C@H](O[C@@H]3[C@H](O[C@@H]4C(O)O[C@H](CO)[C@@H](O)[C@@H]4O)O[C@H](CO)[C@@H](O)[C@@H]3O)O[C@H](CO)[C@@H](O)[C@@H]2O)[C@@H](O)[C@@H](O)[C@@H]1O (stereo partly drawn) [tetramannose, β-1,2-linked straight-chained tetramannose]",Binding of yeast cells to the splenic marginal zone,[1],blocks binding
"M13KBst, the parent vector (parent phage) for the PDPL (from UniProt P69168 19-424)",absorbance (OD490),[2],0.021 OD490
same,absorbance (OD490),irrelevant IgM MAb S10,0.032 OD490
"YRQFVTGFWGPPC [PS76p, synthetic 13-mer: PS76 nonapeptide plus GPP tether and added cysteine]",Solubility,"Solubility tests; deionized water, PBS, 15% v/v dimethylformamide, chloroform, methanol",not soluble
same,Solubility,"Solubility tests; trifluoroacetic acid, dimethylsulfoxide, 20% v/v acetic acid, citrate and acetate buffers below pH 5.4, borate buffer above pH 8.5",soluble
same,Inhibition of MAb B6.1 binding to 2-ME extract,MAb B6.1 [3],negative
same,ELISA titer against 2ME extract,"C. albicans 2ME extract; 1 mg i.p. immunizations, boosters every two weeks",~40
same,Agglutination of hydrophilic C. albicans cells and 2-ME extract-latex beads by sera of immunized mice,"C. albicans 2ME extract; 1 mg per dose i.p. with and without Ribi adjuvant, boost day 21, serum day 28, all four mice",agglutinated
same,ELISA anti-PS76 antibody titer,"C. albicans 2ME extract; 1 mg/dose s.c. plus Ribi adjuvant, after the second boost",160
same,Dot blot reactivity of immune sera to 2-ME extract,"C. albicans 2ME extract; sera 1:10, 1 μg/dot, all four immunized mice",showed reactivity
same,Class of the antibody response against 2ME extract,C. albicans 2ME extract,primarily IgM
B1,Reactivity with MAb B6.1 by ELISA,MAb B6.1 [4],reacted
same,Reactivity with MAb S10 by ELISA,MAb S10,not substantially
same,ELISA titer against 2ME extract,C. albicans 2ME extract; conjugate s.c.,320
same,Class of the antibody response against 2ME extract,C. albicans 2ME extract,primarily IgM
